In patent US11242365B2, “FOXM1-derived peptide, and vaccine including same” (OncoTherapy Science, Inc., priority 2015, dated 2022):
“Also recorded” adds a separate entry of the source.

Legend:
[1] = test system: target cells (C1R-A33) pulsed with peptide; assay: IFN-gamma ELISA of CTL clones established by limiting dilution (HLA-A*33:03); type: cell-based, human; conditions: CTL clone against peptide-pulsed C1R-A33
Description: (§1) After induction of CTLs in vitro, the CTLs were seeded onto 96-well round-bottomed microplates (Nalge Nunc International) at 1 cell/well or 10 cells/well. The CTLs were cultured with two types of Mitomycin C-treated human B lymphoblastoid cell lines (1×10^4 cells/well each) in a total of 150 micro-l/well 5% ABS/AIM-V medium with an anti-CD3 antibody (final concentration: 30 ng/ml) and IL-2 (final concentration: 125 IU/ml). Ten days later, 50 micro-l 5% ABS/AIM-V medium containing 500 IU/ml IL-2 was added to the culture.
(§2) Peptide-pulsed C1R-A33 (1×10^4 cells/well) was prepared as the target cell. The IFN-gamma ELISPOT assay and IFN-gamma ELISA were performed according to the assay kit manufacturer's manual.

[2] = test system: target cells (C1R-A33) pulsed with peptide; assay: IFN-gamma ELISA of CTL lines (HLA-A*33:03); type: cell-based, human; conditions: CTL line against peptide-pulsed C1R-A33
Description: CTLs were propagated using methods similar to those reported by Riddell et al. (Walter E A et al., N Engl J Med 1995, 333(16): 1038-44; Riddell S R et al., Nat Med 1996, 2(2): 216-23). The CTLs were cultured in 25 ml 5% ABS/AIM-V medium together with two types of Mitomycin C-treated human B lymphoblastoid cell lines (5×10^6 cells/25 ml medium each) and an anti-CD3 antibody (final concentration: 40 ng/ml). On the day after beginning of the culturing, IL-2 (final concentration: 120 IU/ml) was added to the culture. On days 5, 8 and 11, the medium was changed to a 5% ABS/AIM-V medium containing IL-2 (final concentration: 30 IU/ml) (Tanaka H et al., Br J Cancer 2001, 84(1): 94-9; Umano Y et al., Br J Cancer 2001, 84(8): 1052-7; Uchida N et al., Clin Cancer Res 2004, 10(24): 8577-86; Suda T et al., Cancer Sci 2006, 97(5): 411-9; Watanabe T et al., Cancer Sci 2005, 96(8): 498-506).
as §2

[3] = test system: peptide-pulsed C1R-A33; assay: In vitro CTL induction, IFN-gamma ELISPOT assay (HLA-A*33:03); type: cell-based, human; conditions: CD8 positive T cells of HLA-A*33:03-positive donors after three stimulations with peptide-pulsed DCs; peptide-pulsed vs non-pulsed C1R-A33
Description: (§3) Monocyte-derived dendritic cells (DCs) were used as the antigen-presenting cell to induce a specific cytotoxic T lymphocyte (CTL) response against peptides presented on human leukocyte antigens (HLAs). As already reported in literatures, DCs were generated in vitro (Nakahara S et al., Cancer Res 2003, 63(14): 4112-8). Specifically, peripheral-blood mononuclear cells (PBMCs) collected from healthy volunteers (HLA-A*33:03-positive) with the Ficoll-Paque plus solution (Pharmacia) were seeded in plastic tissue culture dishes (Corning) to let the monocytes in the PBMCs adhere to the dishes. This was cultured in the presence of 1000 IU/ml granulocyte macrophage colony-stimulating factor (R&D System) and 1000 IU/ml interleukin (IL)-4 (R&D System) for seven days. An AIM-V medium (Invitrogen) containing 5% inactivated AB-type serum (ABS) was used as the medium. DCs that were induced to differentiate from monocytes using the cytokines were pulsed with 20 micro-g/ml of each synthesized peptide (37 degrees C., three hours). Peptide pulsing was carried out in an AIM-V medium containing 3 micro-g/ml beta 2-microglobulin. These peptide-pulsed DCs were inactivated by X-ray irradiation (20 Gy), mixed in a 1:20 ratio with autologous CD8 positive T cells obtained by positive selection using the CD8 Positive Isolation Kit (Invitrogen) (1.5×10^4 DCs and 3×10^5 CD8 positive T cells), and cultured in a 48-well plate (Corning). Each well contained 0.5 ml of the 5% ABS/AIM-V medium, and IL-7 (R&D System) was added thereto (final concentration: 10 ng/ml). Two days after the start of the culture, IL-2 (Novartis) was added (final concentration: 20 IU/ml). On day 7 and day 14 of culture, the CD8 positive T cells were further stimulated with peptide-pulsed DCs. The DCs were prepared at the time of use by the same method as above. […]

[4] = test system: peptide-pulsed C1R-A01; assay: In vitro CTL induction, IFN-gamma ELISPOT assay (HLA-A*01:01); type: cell-based, human; conditions: CD8 positive T cells of HLA-A*01:01-positive donors after three stimulations with peptide-pulsed DCs; peptide-pulsed vs non-pulsed C1R-A01
Description: as §3, with “(CTL)” for “(CTL) response”, “(HLA-A*01:01-positive)” for “(HLA-A*33:03-positive) with the Ficoll-Paque plus solution (Pharmacia)”, “by” for “by positive selection”, “(Corning).” for “(Corning). Each well contained 0.5 ml of the 5% ABS/AIM-V medium, and IL-7 (R&D System) was added thereto (final concentration: 10 ng/ml). Two days after the start of the culture, IL-2 (Novartis) was added (final concentration: 20 IU/ml). On day 7 and day 14 of culture, the CD8 positive T cells were further stimulated with peptide-pulsed DCs. The DCs were prepared at the time of use by the same method as above.”

[5] = test system: target cells (C1R-A01) pulsed with peptide; assay: IFN-gamma ELISA of CTL clones established by limiting dilution (HLA-A*01:01); type: cell-based, human; conditions: CTL clone against peptide-pulsed C1R-A01; listed as FOXM1-A01-9-233
Description: as §1
Peptide-pulsed C1R-A01 (1×10^4 cells/well) was prepared as the target cell. The IFN-gamma ELISPOT assay and IFN-gamma ELISA were performed according to the assay kit manufacturer's manual.

[6] = test system: COS7 cells expressing FOXM1 and HLA-A*33:03; assay: IFN-gamma production of CTL clone against target cells expressing FOXM1 and HLA-A*33:03; type: cell-based, African green monkey
Text: A cDNA encoding the FOXM1 or HLA-A*33:03 gene was amplified by PCR. The PCR-amplified product was each incorporated into an expression vector. Either or both of the FOXM1 gene-expressing vector and the HLA-A*33:03 gene-expressing vector were introduced into COS7 cells, which is a cell line negative for HLA, using Lipofectamine 2000 (Invitrogen). On the day after gene introduction, COS7 cells were detached and harvested using versene (Invitrogen), and used as the target cell for confirmation of IFN-gamma production (5×10^4 cells/well).
IFN-gamma production of the FOXM1-A33-9-308 (SEQ ID NO: 2)-specific CTL clone against target cells expressing FOXM1 and HLA-A*33:03 was investigated. COS7 cells expressing both FOXM1 and HLA-A*33:03 were prepared as the target cell. COS7 cells expressing either one of FOXM1 and HLA-A*33:03 were prepared as the negative control cell. […] This clearly proves that FOXM1-A33-9-308 (SEQ ID NO: 2) is a peptide generated by antigen processing, and is presented on the cell surface with the HLA-A*33:03 molecule and recognized by CTLs.

AARDVNLPR (a peptide derived from FOXM1) [SEQ ID NO: 7]
peptide-specific IFN-gamma production of CTL clone (ELISA) ([1]; listed as FOXM1-A33-9-146): showed a peptide-specific IFN-gamma production
IFN-gamma production by the CTL line (ELISA) ([2]; listed as FOXM1-A33-9-146): observed; also recorded: CTL lines that produce IFN-gamma in a peptide-specific manner were established

ASLMSSELAR (a peptide derived from FOXM1) [SEQ ID NO: 46]
peptide-specific IFN-gamma production (ELISPOT) [3]: observed

KTELPLGARR (a peptide derived from FOXM1) [SEQ ID NO: 61]
peptide-specific IFN-gamma production (ELISPOT) [4]: observed

MSSELARHSK (a peptide derived from FOXM1) [SEQ ID NO: 39]
IFN-gamma production by the CTL line (ELISA) ([2]; listed as FOXM1-A33-10-391): observed; also recorded: CTL lines that produce IFN-gamma in a peptide-specific manner were established

NLSLHDMFVR (a peptide derived from FOXM1) [SEQ ID NO: 25]
peptide-specific IFN-gamma production (ELISPOT) [3]: not observed

SLSNIQWLR (a peptide derived from FOXM1) [SEQ ID NO: 1]
peptide-specific IFN-gamma production (ELISPOT) [3]: observed

VSERPPYSY (a peptide derived from FOXM1) [SEQ ID NO: 48]
peptide-specific IFN-gamma production of CTL clone (ELISA) [5]: showed a peptide-specific IFN-gamma production

WIEDHFPYFK (a peptide derived from FOXM1) [SEQ ID NO: 42]
IFN-gamma production by the CTL line (ELISA) ([2]; listed as FOXM1-A33-10-265): observed; also recorded: CTL lines that produce IFN-gamma in a peptide-specific manner were established
peptide-specific IFN-gamma production (ELISPOT) [4]: not observed

WTIHPSANR (a peptide derived from FOXM1) [SEQ ID NO: 2]
IFN-gamma production of peptide-specific CTL clone ([6]; COS7 cells expressing both FOXM1 and HLA-A*33:03): showed IFN-gamma production
IFN-gamma production of peptide-specific CTL clone ([6]; negative control: COS7 cells expressing either one of FOXM1 and HLA-A*33:03, listed as FOXM1-A33-9-308): a significant IFN-gamma production was not observed; also recorded: a significant IFN-gamma production was not shown
peptide-specific IFN-gamma production of CTL clone (ELISA) ([1]; listed as FOXM1-A33-9-308): showed a peptide-specific IFN-gamma production
IFN-gamma production by the CTL line (ELISA) ([2]; listed as FOXM1-A33-9-308): observed; also recorded: CTL lines that produce IFN-gamma in a peptide-specific manner were established
